Assay results reported in patent publication US20230183243A1, “HETEROARYL DERIVATIVES AND PHARMACEUTICAL COMPOSITION COMPRISING SAME AS ACTIVE INGREDIENT” (VORONOI INC., priority 2019, published 2023).

What was measured:
[1] = target: T1, TTK (Homo sapiens, UniProt P33981); test: TTK enzyme activity, ADP-Glo kinase assay; format: biochemical; parameters: purchased SignalChem T20-10G; settings: purified human TTK, ATP 10 μM, 25° C., 2 hours
T1 sequence (P33981 1-857): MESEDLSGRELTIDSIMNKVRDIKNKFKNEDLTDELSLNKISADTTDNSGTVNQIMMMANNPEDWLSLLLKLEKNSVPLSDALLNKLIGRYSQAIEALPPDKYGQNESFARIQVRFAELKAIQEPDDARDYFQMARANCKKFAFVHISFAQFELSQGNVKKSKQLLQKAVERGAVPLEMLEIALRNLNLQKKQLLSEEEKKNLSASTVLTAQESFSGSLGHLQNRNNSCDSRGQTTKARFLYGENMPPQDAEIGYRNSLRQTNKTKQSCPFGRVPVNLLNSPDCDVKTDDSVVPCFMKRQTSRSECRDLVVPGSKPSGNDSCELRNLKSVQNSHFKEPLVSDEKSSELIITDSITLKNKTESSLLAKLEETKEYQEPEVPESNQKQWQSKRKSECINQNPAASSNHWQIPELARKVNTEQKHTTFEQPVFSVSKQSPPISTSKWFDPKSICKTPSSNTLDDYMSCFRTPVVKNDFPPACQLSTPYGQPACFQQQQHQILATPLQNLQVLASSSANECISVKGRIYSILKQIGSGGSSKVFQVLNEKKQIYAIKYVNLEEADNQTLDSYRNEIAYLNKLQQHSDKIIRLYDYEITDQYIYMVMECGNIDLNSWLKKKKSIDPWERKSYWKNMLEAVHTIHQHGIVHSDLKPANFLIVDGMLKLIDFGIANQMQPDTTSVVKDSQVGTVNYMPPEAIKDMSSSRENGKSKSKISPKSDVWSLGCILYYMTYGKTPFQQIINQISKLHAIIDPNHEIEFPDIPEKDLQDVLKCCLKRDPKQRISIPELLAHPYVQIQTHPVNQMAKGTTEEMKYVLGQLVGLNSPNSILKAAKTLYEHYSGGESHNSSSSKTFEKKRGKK
Summary of the method: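 ADP-Glo read-out; percent inhibition at each compound concentration was relative to the solvent-only control. The reactions contained 25 ng enzyme, 0.2 μg substrate and 10 μM ATP in 40 mM Tris-HCl pH 7.4 with 20 mM MgCl2, 0.5 mg/mL BSA and 50 μM DTT, and ran 2 h at 25 °C.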

[2] = tested on: MDA-MB-231 cells; test: Inhibition of proliferation of triple-negative breast cancer cells, CellTiter-Glo; format: cell-based; settings: Homo sapiens, 120 h; MDA-MB-231, cultured for 5 days
Summary of the method: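 MDA-MB-231 cells pre-cultured 24 h (5% CO2, 37 °C), then exposed to compound for 5 days at 12 three-fold dilutions, final 10 μM to 0.05 nM. Viability read by CellTiter-Glo luminescence after 10 min at 37 °C; growth inhibition calculated relative to untreated solvent-control cells.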

[3] = tested on: SHP-77; test: Inhibition of proliferation of small cell lung cancer cells, CellTiter-Glo; format: cell-based; settings: Homo sapiens, SHP77, 120 h; SHP-77, cultured for 5 days
Summary of the method: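 SHP-77 cells at 2,000–3,000 cells/well, cultured 24 h at 37° C, 5% CO2, then given 12 threefold compound dilutions, final 10 μM to 0.05 nM, for 5 days. Viability by CellTiter-Glo luminescence relative to solvent control. GI50 from concentration–response.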

Compound | IC50 [1] [nM] | GI50 [2] [nM] | GI50 [3] [nM]
Cn1nccc1-c1ccc(Nc2nc(NC3CCCC3)c3c(Cl)c[nH]c3n2)c2c1OCCO2 [Example 128, 5-chloro-N^4-cyclopentyl-N^2-(8-(1-methyl-1H-pyrazol-5-yl)-2,3-dihydrobenzo[b][1,4]dioxin-5-yl)-7H-pyrrolo[2,3-d] pyrimidine-2,4-diamine] | 50 to 200 | 100 to 1000 | < 100
COc1cc(-c2ccnn2C)ccc1Nc1nc(C2=CCCCC2)c2c(C#N)c[nH]c2n1 [Example 129, 4-(cyclohex-1-en-1-yl)-2-((2-methoxy-4-(1-methyl-1H-pyrazol-5-yl)phenyl)amino)-7H-pyrrolo[2,3-d] pyrimidine-5-carbonitrile] | 200 to 1000 | 100 to 1000 | 100 to 1000
Cn1nccc1-c1ccc(Nc2nc(C3=CCCCC3)c3c(C#N)c[nH]c3n2)c2c1OCCO2 [Example 130, 4-(cyclohex-1-en-1-yl)-2-((8-(1-methyl-1H-pyrazol-5-yl)-2,3-dihydrobenzo[b][1,4]dioxin-5-yl)amino)-7H-pyrrolo[2,3-d] pyrimidine-5-carbonitrile] | 50 to 200 | 100 to 1000 | 100 to 1000
COc1cc(-c2c(C)noc2C)ccc1Nc1nc(NC2CCOCC2)c2c(C(F)(F)F)c[nH]c2n1 [Example 131, N^2-(4-(3,5-dimethylisoxazol-4-yl)-2-methoxyphenyl)-N^4-(tetrahydro-2H-pyran-4-yl)-5-(trifluoromethyl)-7H-pyrrolo[2,3-d] pyrimidine-2,4-diamine] | 50 to 200 | < 100 | < 100
COc1cc(-c2ccnn2C)ccc1Nc1nc(NC2CCCC2)c2c(C(F)(F)F)c[nH]c2n1 [Example 132, N^4-cyclopentyl-N^2-(2-methoxy-4-(1-methyl-1H-pyrazol-5-yl)phenyl)-5-(trifluoromethyl)-7H-pyrrolo[2,3-d] pyrimidine-2,4-diamine] | 50 to 200 | 100 to 1000 | 100 to 1000
Cn1nccc1-c1ccc(Nc2nc(NC3CCCC3)c3c(C(F)(F)F)c[nH]c3n2)c2c1OCCO2 [Example 133, N^4-cyclopentyl-N^2-(8-(1-methyl-1H-pyrazol-5-yl)-2,3-dihydrobenzo[b][1,4]dioxin-5-yl)-5-(trifluoromethyl)-7H-pyrrolo[2,3-d] pyrimidine-2,4-diamine] | 200 to 1000 | 100 to 1000 | 100 to 1000
COc1cc(Nc2nc(NC3CCCC3)c3c(C#N)c[nH]c3n2)ccc1-c1cnn(C)c1 [Example 136, 4-(cyclopentylamino)-2-((3-methoxy-4-(1-methyl-1H-pyrazol-4-yl)phenyl)amino)-7H-pyrrolo[2,3-d] pyrimidine-5-carbonitrile] | 50 to 200 | < 100 | < 100
COc1cc(Nc2nc(NC3CCCCC3)c3c(C#N)c[nH]c3n2)ccc1-c1cnn(C)c1 [Example 137, 4-(cyclohexylamino)-2-((3-methoxy-4-(1-methyl-1H-pyrazol-4-yl)phenyl)amino)-7H-pyrrolo[2,3-d] pyrimidine-5-carbonitrile] | 50 to 200 | < 100 | < 100
COc1cc(Nc2nc(NC3CCCC3)c3c(C#N)c[nH]c3n2)ccc1-c1c(C)noc1C [Example 139, 4-(cyclopentylamino)-2-((4-(3,5-dimethylisoxazol-4-yl)-3-methoxyphenyl)amino)-7H-pyrrolo[2,3-d] pyrimidine-5-carbonitrile] | 200 to 1000 | 100 to 1000 | < 100
COc1cc(Nc2nc(NC3CCCCC3)c3c(C#N)c[nH]c3n2)ccc1-c1c(C)noc1C [Example 140, 4-(cyclohexylamino)-2-((4-(3,5-dimethylisoxazol-4-yl)-3-methoxyphenyl)amino)-7H-pyrrolo[2,3-d] pyrimidine-5-carbonitrile] | 200 to 1000 | < 100 | < 100

Continued, values first:

IC50 [1] [nM] | GI50 [2] [nM] | GI50 [3] [nM] | Compound
50 to 200 | < 100 | < 100 | COc1cc(-c2ccnn2C)ccc1Nc1nc(NC2CCCC2)c2c(Cl)c[nH]c2n1 [Example 127, 5-chloro-N^4-cyclopentyl-N^2-(2-methoxy-4-(1-methyl-1H-pyrazol-5-yl)phenyl)-7H-pyrrolo[2,3-d] pyrimidine-2,4-diamine]
< 50 | < 100 | < 100 | COc1cc(-c2ccccc2)ccc1Nc1nc(NC2CCOCC2)c2c(C#N)c[nH]c2n1 [Example 134, 2-((3-methoxy-[1,1 biphenyl]-4-yl)amino)-4-((tetrahydro-2H-pyran-4-yl)amino)-7H-pyrrolo[2,3-d] pyrimidine-5-carbonitrile]
< 50 | < 100 | < 100 | COc1cc(Nc2nc(NC3CCOCC3)c3c(C#N)c[nH]c3n2)ccc1-c1c(C)noc1C [Example 138]
< 50 | < 100 | < 100 | COc1cc(-c2cccc(O)c2)ccc1Nc1nc(NC2CCOCC2)c2c(C#N)c[nH]c2n1 [Example 141, 2-((3′-hydroxy-3-methoxy-[1,1′-biphenyl]-4-yl)amino)-4-((tetrahydro-2H-pyran-4-yl)amino)-7H-pyrrolo[2,3-d] pyrimidine-5-carbonitrile]
< 50 | 100 to 1000 | 100 to 1000 | C=CC(=O)Nc1cc(-c2ccnn2C)ccc1Nc1nc(NC2CCCC2)c2c(C#N)c[nH]c2n1 [Example 142, N-(2-((5-cyano-4-(cyclopentylamino)-7H-pyrrolo[2,3-d]pyrimidin-2-yl)amino)-5-(1-methyl-1H-pyrazol-5-yl)phenyl)acrylamide]
< 50 | < 100 | < 100 | COc1cc(-c2nncn2C)ccc1Nc1nc(NC2CCOC(C)(C)C2)c2c(C#N)c[nH]c2n1 (stereo not drawn) [Example 143, 4-((2,2-dimethyltetrahydro-2H-pyran-4-yl)amino)-2-((2-methoxy-4-(4-methyl-4H-1,2,4-triazol-3-yl)phenyl)amino)-7H-pyrrolo[2,3-d] pyrimidine-5-carbonitrile]
< 50 | < 100 | < 100 | COc1cc(-c2cnn(C)c2)ccc1Nc1nc(NC2CCOC(C)(C)C2)c2c(C#N)c[nH]c2n1 (stereo not drawn) [Example 144, 4-((2,2-dimethyltetrahydro-2H-pyran-4-yl)amino)-2-((2-methoxy-4-(1-methyl-1H-pyrazol-4-yl)phenyl)amino)-7H-pyrrolo[2,3-d] pyrimidine-5-carbonitrile]
< 50 | < 100 | < 100 | Cn1cc(-c2ccc(Nc3nc(NC4CCOC(C)(C)C4)c4c(C#N)c[nH]c4n3)c3c2OCCO3)cn1 (stereo not drawn) [Example 145, 4-((2,2-dimethyltetrahydro-2H-pyran-4-yl)amino)-2-((8-(1-methyl-1H-pyrazol-4-yl)-2,3-dihydrobenzo[b][1,4]dioxin-5-yl)amino)-7H-pyrrolo[2,3-d] pyrimidine-5-carbonitrile]
< 50 | < 100 | < 100 | COc1cc(-c2c(C)noc2C)ccc1Nc1nc(NC2C[C@H]3CC[C@@H]2C3)c2c(C#N)c[nH]c2n1 (stereo partly drawn) [Example 146, 4-(((1R,4S)-bicyclo[2.2.1]heptan-2-yl)amino)-2-((4-(3,5-dimethylisoxazol-4-yl)-2-methoxyphenyl)amino)-7H-pyrrolo[2,3-d] pyrimidine-5-carbonitrile]
< 50 | < 100 | < 100 | Cn1cc(-c2ccc(Nc3nc(NC4C[C@H]5CC[C@@H]4C5)c4c(C#N)c[nH]c4n3)c3c2OCCO3)cn1 (stereo partly drawn) [Example 147, 4-(((1R,4S)-bicyclo[2.2.1]heptan-2-yl)amino)-2-((8-(1-methyl-1H-pyrazol-4-yl)-2,3-dihydrobenzo[b][1,4]dioxin-5-yl)amino)-7H-pyrrolo[2,3-d] pyrimidine-5-carbonitrile]
< 50 | < 100 | < 100 | N#Cc1c[nH]c2nc(Nc3ccc(N4CCCC4=O)c4c3OCCO4)nc(NC3C[C@H]4CC[C@@H]3C4)c12 (stereo partly drawn) [Example 148, 4-(((1R,4S)-bicyclo[2.2.1]heptan-2-yl)amino)-2-((8-(2-oxopyrrolidin-1-yl)-2,3-dihydrobenzo[b][1,4]dioxin-5-yl)amino)-7H-pyrrolo[2,3-d] pyrimidine-5-carbonitrile]
